# Molecular target: ATP-dependent translocase ABCB1 (Homo sapiens, UniProt P08183)
# Assay: TP_TRANSPORTER: Vinorelbine-induced cytotoxicity in P-gp positive tumor
# Format: functional, tissue-based, Neoplasm
# Sequence of ATP-dependent translocase ABCB1 (P08183 whole entry): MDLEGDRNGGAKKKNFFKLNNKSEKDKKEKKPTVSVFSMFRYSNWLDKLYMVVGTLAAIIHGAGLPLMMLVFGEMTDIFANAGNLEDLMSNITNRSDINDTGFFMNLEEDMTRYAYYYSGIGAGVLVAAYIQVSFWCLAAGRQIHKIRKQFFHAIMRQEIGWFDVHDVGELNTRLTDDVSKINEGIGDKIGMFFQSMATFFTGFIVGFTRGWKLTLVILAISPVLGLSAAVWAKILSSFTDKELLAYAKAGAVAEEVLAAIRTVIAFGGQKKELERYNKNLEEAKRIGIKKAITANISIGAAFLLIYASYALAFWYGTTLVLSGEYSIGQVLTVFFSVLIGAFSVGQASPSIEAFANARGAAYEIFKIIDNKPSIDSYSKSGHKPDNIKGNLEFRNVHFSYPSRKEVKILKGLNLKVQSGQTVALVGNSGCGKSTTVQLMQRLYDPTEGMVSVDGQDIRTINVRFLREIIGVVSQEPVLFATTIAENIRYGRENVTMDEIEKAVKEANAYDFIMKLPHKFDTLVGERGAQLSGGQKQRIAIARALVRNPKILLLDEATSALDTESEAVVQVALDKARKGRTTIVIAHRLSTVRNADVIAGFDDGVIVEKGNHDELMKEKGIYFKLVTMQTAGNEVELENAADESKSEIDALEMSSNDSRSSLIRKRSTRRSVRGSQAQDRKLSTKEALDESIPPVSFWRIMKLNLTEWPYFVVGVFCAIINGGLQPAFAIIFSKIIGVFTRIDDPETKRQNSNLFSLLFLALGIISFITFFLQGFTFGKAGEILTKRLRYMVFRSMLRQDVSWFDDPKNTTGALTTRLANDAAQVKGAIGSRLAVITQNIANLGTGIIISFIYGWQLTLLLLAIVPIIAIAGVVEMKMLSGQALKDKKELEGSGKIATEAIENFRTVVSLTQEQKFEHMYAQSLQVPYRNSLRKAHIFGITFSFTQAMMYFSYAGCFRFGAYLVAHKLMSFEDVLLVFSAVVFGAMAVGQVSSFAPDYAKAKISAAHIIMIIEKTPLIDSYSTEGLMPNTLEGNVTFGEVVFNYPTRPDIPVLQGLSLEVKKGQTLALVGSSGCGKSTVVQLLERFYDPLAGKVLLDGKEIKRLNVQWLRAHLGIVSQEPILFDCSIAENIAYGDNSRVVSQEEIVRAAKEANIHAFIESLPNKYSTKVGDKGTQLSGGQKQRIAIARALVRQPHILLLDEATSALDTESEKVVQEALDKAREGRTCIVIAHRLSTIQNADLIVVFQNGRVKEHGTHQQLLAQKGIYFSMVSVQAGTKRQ
smiles,measurement,value
COc1cc2c(cc1OC)CN(CCc1ccc(NC(=O)c3cc(OC)c(OC)cc3NC(=O)c3cnc4ccccc4c3)cc1)CC2 [TARIQUIDAR],Activity,inhibitor [+]

# — ChEMBL document CHEMBL2073825, “Ex vivo reversal of chemoresistance by tariquidar (XR9576)” (Anticancer Drugs, 2004)
